This test concerns SW-480 colon cancer cells. Kind of test: SW480 colon carcinoma xenograft, intratumoral injection. Format: in vivo, nude mice. The procedure: The lead peptides were evaluated also in a colon carcinoma xenograft model, employing SW480 cells that harbor p53^R273H, P309S. The experiment was conducted on 15 mice, randomly divided into 3 groups: a control group treated with a cocktail of 3 ineffective peptides, a group treated with a cocktail of 3 effective pCAPs (250, 308, 325) and a group treated singly with pCAP-325. Tumors were allowed to reach visible size for 10 days before onset of treatment. […] Figures 6F, 6G show the mean weight and volume of excised tumors.
Figure 6 Effect of lead peptides on tumor progression in vivo; colon cancer xenograft model In vivo effect of the indicated peptides in a mouse xenograft model of SW-480 colon cancer cells. 10^6 cells were injected and tumors were allowed to establish for 10 days. […] D., E. - Box plot of tumor volume and weight, respectively. TEXT PRINTED IN THE PICTURE: (A) Control peptides: SW-480 colon carcinoma cells (p53^273,309): 240% | (B) pCAP mix: SW-480 colon carcinoma cells (p53^273,309): -97% | (C) pCAP-325: SW-480 colon carcinoma cells (p53^273,309): -93.6% DOUBTS OF THE COPYIST ABOUT THIS PICTURE: Panels A-C: no measure is printed with the percentages (240%, -97%, -93.6%); each stands only beside a bracket at the right end of the plot
Mice (6 weeks athymic nude) were injected subcutaneously with 2×10^5-10^6 cells into each […]. All cell lines employed in these experiments stably express a luciferase reporter gene to enable monitoring of tumor growth by live imaging. 4-18 days later, when tumors reached visible size, the mice were randomly divided into several groups: a control group, treated with either a single control peptide or a mix of 2-3 control pCAPs, and groups treated with effective peptides, either a single peptide or a mix of three peptides. Peptides were administered by intratumoral injection of 6-10μg peptide per tumor in 40μl PBS, three times a week. Tumor growth over time was measured by live imaging, using the IVIS2000 system. Exposure time was calibrated to 20 seconds. 16 images were taken over 8 minutes and peak luminescence values were taken for each tumor. Experiments were conducted until tumors reached maximal allowed size of 1cm^3, at which time were sacrificed and tumors extracted, measured and weighed.

The mark [1] stands for this setting: Experiment 4, SW-480 p53^R273H,P309S.
The mark [2] stands for this setting: Experiment 4, SW-480 p53^R273H,P309S, excised tumors.

In the case of myr-RRIRDPRILLLHFD [pCAP-325], under setting [1], the “% of tumors total regression” value is 20% and the “IVIS average ratio to day 0” value came out at 6.4%. Further, under setting [2], the Samples average size turned out to be 0.12 and the Samples average weight is on record as 0.1. For the same substance, the tumor size decrease (SW480 xenograft, intratumoral three times a week, mix 2μg of each peptide or pCAP-325 6μg, live imaging) is on record as 93.6%.

For the origin of these results see article PMC4914250, “Cancer therapeutic approach based on conformational stabilization of mutant p53 protein by small peptides” (Oncotarget, 2016).
